Data reported in patent publication US20230048888A1, “USE OF TRIAZOLOTRIAZINE DERIVATIVE IN TREATMENT OF DISEASES” (ZHEJIANG VIMGREEN PHARMACEUTICALS, LTD., priority 2019, published 2023).

How the values were obtained:
human ADORA3 = target: T1, human ADORA3 (Homo sapiens, UniProt P0DMS8); test: Calcium flow test (FLIPR), ADORA3 stably transfected CHO; assay type: cell-based; settings: Table 9
T1 construct: host or cells: CHO
T1 sequence (P0DMS8 1-318): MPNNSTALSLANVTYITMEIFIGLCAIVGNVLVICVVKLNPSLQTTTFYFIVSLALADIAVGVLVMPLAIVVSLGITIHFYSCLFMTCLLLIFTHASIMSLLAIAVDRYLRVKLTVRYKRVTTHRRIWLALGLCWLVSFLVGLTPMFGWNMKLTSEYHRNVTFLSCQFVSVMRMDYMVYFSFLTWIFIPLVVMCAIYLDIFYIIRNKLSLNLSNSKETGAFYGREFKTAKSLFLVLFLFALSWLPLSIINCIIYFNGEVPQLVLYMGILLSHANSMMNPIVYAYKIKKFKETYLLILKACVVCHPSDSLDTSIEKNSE
Protocol: In this experiment, stably transfected cell lines over-expressing adenosine receptor coupled to human Gq were used, and the antagonistic function of Compound 22 was evaluated by testing the changes in intracellular calcium ion concentration. The binding of the A2AR agonist to A2AR could activate a downstream pathway to increase the intracellular calcium ion concentration. The antagonist would competitively occupy the binding site where the agonist binds to A2AR, thereby interrupting the intracellular signal transduction and leading to a change in the intracellular calcium ion concentration. By detecting the strength of the intracellular calcium ion signal, the antagonistic activities of the compound on human ADORA1, ADORA2A, ADORA2B and ADORA3 adenosine receptors were determined. […]
7) The FLIPR instrument software was operated; following a set program, 10 μL of experimental buffer salt solution was added to the cell plate; and fluorescence signals were read. Then, 10 μL of the reference compound of agonist at a predetermined concentration was added to the cell plate, and the fluorescence signals were read. After reading, data was exported by means of “Max-Min” and “Read 91 to Maximum allowed” in the software, the EC80 of each cell line was calculated, and an agonist with a concentration of 6×EC80 was prepared.
9) The FLIPR instrument software was operated; following a set program, 10 μL of the test compound and 10 μL of the reference compound were added at a predetermined concentration to the cell plate; and the fluorescence signals were read. Then, 10 μL of the reference compound of agonist at a concentration of 6×EC80 was added to the cell plate, and the fluorescence signal were read. For the antagonist detection of the compound, data was exported by means of “Max-Min” and “Read 1 to 90” in the software. […]

[1] = target: T2, Human adenosine ADORA3 receptor membrane protein (Homo sapiens, UniProt P0DMS8); test: Radioisotope ligand competitive binding, ADORA3 ([3H] HEMADO); settings: ADORA3 (IC50, nM, n = 3), binding test
T2 construct: purchased PerkinElmer ES-012-M400UA
T2 sequence (P0DMS8 1-318): T1 sequence (P0DMS8 1-318)
Protocol: ADORA3: 25 mM HEPES pH 7.4, 10 mM MgCl2, 1 mM CaCl2, 0.5% BSA
4) Preparation of compounds: the test compounds and the reference compounds were separately diluted with 100% DMSO. For the test compounds, the initial concentration was 10 μM, with double secondary wells; 4-fold gradient dilution was carried out at 10 points; and the final working concentration was 0.038 nM-10 μM (for the second and third detection of the test compound against an ADORA2A target, the initial concentration was 2 μM, with double secondary wells, 4-fold gradient dilution was carried out at 10 points, and the final working concentration was 0.0076 nM-2 μM). For the ADORA1, ADORA2A, ADORA2B, and ADORA3 reference compounds, the initial concentration was 1 μM, with double secondary wells, 4-fold gradient dilution was carried out at 10 points, and the final working concentration was 0.0038 nM-1 μM.
1 μL of a sample to be tested and 1 μL of a reference compound were added to a 96-well plate in sequence. […] 100 μL of cells and 100 μL of isotopes were added to all experimental wells. The 96-well plate was sealed; ADORA1, ADORA2B, and ADORA3 were incubated for 1 hour on a shaker (300 rpm) at room temperature (22° C.); and ADORA2A was incubated for 2 hours on a shaker (300 rpm) at room temperature (22° C.). At the same time, a GF/C filter plate was soaked with ADORA1, ADORA2A, ADORA2B, and ADORA3 by using 0.3% PEI for at least 30 minutes at room temperature, at 50 μL/well. After the incubation was completed, the incubated reaction system was collected onto the GF/C filter plate with a Harvester, washed 4 times and then dried for 0.5 hours in an oven at 50° C. The bottom of the dried GF/C filter plate was sealed with a film, 50 μL of scintillation solution was added to each well, which was then sealed with a Top-seal-A film. With Microbeta readings, the data was analyzed by GraphPad Prism 5.0.
% Inhibition=100×(1−(Sample_raw value−Low control_Average)/(High control_Average−Low control_Average))
The data was fitted with “log(inhibitor) vs response-variable slope” in GraphPad Prism 5.0 to obtain IC50.

## Nc1nc2ccc(Cl)cc2c2nc(-c3ccco3)nn12 [CGS-15943, reference compound]
Human ADORA3
  IC50: 32.1 ± 4.52 nM
[1]; Table 10 (IC50)
  IC50: 18 ± 11.4 nM
[1]; Table 11
  IC50: 14.5 nM
